The compounds below were run against T1, LHRH rat pituitary receptor (Rattus norvegicus, UniProt P30969) (assay: LHRH rat pituitary receptor binding (pKI)). Settings: in vitro.
T1 construct: from tissue; host or cells: rat pituitary
T1 sequence (P30969 1-327): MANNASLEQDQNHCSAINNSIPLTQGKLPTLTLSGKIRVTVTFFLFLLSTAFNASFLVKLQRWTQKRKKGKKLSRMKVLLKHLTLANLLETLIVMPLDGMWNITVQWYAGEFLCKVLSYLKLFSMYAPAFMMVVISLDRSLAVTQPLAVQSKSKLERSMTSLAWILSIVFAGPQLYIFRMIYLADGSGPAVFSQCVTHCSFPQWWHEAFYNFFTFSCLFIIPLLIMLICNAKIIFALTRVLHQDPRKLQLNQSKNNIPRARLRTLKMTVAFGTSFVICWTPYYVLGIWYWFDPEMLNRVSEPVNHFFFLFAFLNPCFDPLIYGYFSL
Experimental: Representative compounds of the present invention were evaluated in in vitro tests for LHRH rat pituitary receptor binding (pKI) and for LH inhibition from rat pituitary cells for antagonist potency (pA2). […] The receptor binding affinity (pKI) is the negative equilibrium dissociation constants.

Compound | pKI (receptor binding affinity)
3',3'-N-Bisdesmethyl-3'-N-cyclopropylmethyl-3'-N-(2-furyl)methyl-11-deoxy-11-[carboxy-(3-chloro-4-fluorophenethylamino)]-6-O-methyl-erythromycin A 11,12-(cyclic carbamate) [Example 24] | 8.00
CC[C@H]1OC(=O)[C@H](C)[C@@H](O[C@H]2C[C@@](C)(OC)[C@@H](O)[C@H](C)O2)[C@H](C)[C@@H](O[C@@H]2O[C@H](C)C[C@H](N(CC3CC3)C3CCC3)[C@H]2O)[C@](C)(OC)C[C@@H](C)C(=O)[C@H](C)[C@H]2N(CCc3ccc(F)c(Cl)c3)C(=O)O[C@]12C [Example 19, 3',3'-N-Bisdesmethyl-3'-N-cyclobutyl-3'-N-cyclopropylmethyl-11-deoxy-11-[carboxy-(3-chloro-4-fluorophenethylamino)]-6-O-methyl-erythromycin A 11,12-(cyclic carbamate)] | 9.08
3',3'-N-Bisdesmethyl-3'-N-cyclopropylmethyl-3'-N-(6-methyl-2-pyridyl)methyl-11-deoxy-11-[carboxy-(3-chloro-4-fluorophenethylamino)]-6-O-methyl-erythromycin A 11,12-(cyclic carbamate) [Example 25] | 8.58
3',3 -N-Bisdesmethyl-3'-N-cyclopropylmethyl-3'-N-4-hydroxymethyl-(2-furylmethyl-11-Deoxy-11-[carboxy-(3,4-dichlorophenethylamino)]-6-O-methyl-erythromycinA 11,12-(cyclic carbamate) [Example 21] | 8.34

Same assay, conditions: in vitro, read-out: pKI (receptor binding affinity) (converted)

Compound | Ki [nM]
CC[C@H]1OC(=O)[C@H](C)[C@@H](O[C@H]2C[C@@](C)(OC)[C@@H](O)[C@H](C)O2)[C@H](C)[C@@H](O[C@@H]2O[C@H](C)C[C@H](N(CC3CC3)CC3CC3)[C@H]2O)[C@](C)(OC)C[C@@H](C)C(=O)[C@H](C)[C@H]2N(CCc3ccc(F)cc3)C(=O)O[C@]12C [Example 11, 3',3'-N-Bisdesmethyl-3',3'-N-biscyclopropylmethyl-11-deoxy-11-[carboxy-(4-fluorophenethylamino)]-6-O-methyl-erthromycin A 11,12-(cyclic carbamate)] | 2.19
CC[C@H]1OC(=O)[C@H](C)[C@@H](O[C@H]2C[C@@](C)(OC)[C@@H](O)[C@H](C)O2)[C@H](C)[C@@H](O[C@@H]2O[C@H](C)C[C@H](N(CCCc3ccccn3)CCCc3ccccn3)[C@H]2O)[C@](C)(OC)C[C@@H](C)C(=O)[C@H](C)[C@H]2N(CCc3ccc(Cl)c(Cl)c3)C(=O)O[C@]12C [Example 20, 3',3'-N-Bisdesmethyl-3',3'-N-bis-[3-(2-pyridyl)-propyl]-11-deoxy-11-[carboxy-(3,4-dichlorophenethylamino)]-6-O-methyl-erythromycin A 11,12-(cyclic carbamate)] | 3.98
CC[C@H]1OC(=O)[C@H](C)[C@@H](O[C@H]2C[C@@](C)(OC)[C@@H](O)[C@H](C)O2)[C@H](C)[C@@H](O[C@@H]2O[C@H](C)C[C@H](N(CC3CC3)CC3CC3)[C@H]2O)[C@](C)(OC)C[C@@H](C)C(=O)[C@H](C)[C@H]2N(CCc3ccc(Cl)c(Cl)c3)C(=O)O[C@]12C [Example 1] | 18.6
CC[C@H]1OC(=O)[C@H](C)[C@@H](O[C@H]2C[C@@](C)(OC)[C@@H](O)[C@H](C)O2)[C@H](C)[C@@H](O[C@@H]2O[C@H](C)C[C@H](N(CC3CC3)CC3CC3)[C@H]2O)[C@](C)(OC)C[C@@H](C)C(=O)[C@H](C)[C@H]2N(CCc3ccc(OC)cc3)C(=O)O[C@]12C [Example 10, 3',3'-N-Bisdesmethyl-3',3'-N-biscyclopropylmethyl-11-deoxy-11-[carboxy-(4-methoxyphenethylamino)]-6-O-methyl-erythromycin A 11,12-(cyclic carbamate)] | 1.41
CC[C@H]1OC(=O)[C@H](C)[C@@H](O[C@H]2C[C@@](C)(OC)[C@@H](O)[C@H](C)O2)[C@H](C)[C@@H](O[C@@H]2O[C@H](C)C[C@H](N(CC3CC3)CC3CC3)[C@H]2O)[C@](C)(OC)C[C@@H](C)C(=O)[C@H](C)[C@H]2N(CCc3ccc(F)c(Cl)c3)C(=O)O[C@]12C [Example 15, 3',3'-N-Bisdesmethyl-3',3'-N-biscyclopropylmethyl-11-deoxy-11-[carboxy-(3-chloro-4-fluorophenetlamino)]-6-O-methyl-erythromycin A 11,12-(cyclic carbamate)] | 1.26
CC[C@H]1OC(=O)[C@H](C)[C@@H](O[C@H]2C[C@@](C)(OC)[C@@H](O)[C@H](C)O2)[C@H](C)[C@@H](O[C@@H]2O[C@H](C)C[C@H](N(CC3CCC3)CC3CC3)[C@H]2O)[C@](C)(OC)C[C@@H](C)C(=O)[C@H](C)[C@H]2N(CCc3ccc(Cl)cc3)C(=O)O[C@]12C [Example 9, 3',3'-N-Bisdesmethyl-3'-N-cyclobutylmethyl-3'-N-cyclopropylmethyl-11-deoxy-11-[carboxy-(4-chlorophenethylamino)]-6-methyl-erythromycin A 11,12-(cycliccarbamate)] | 6.31
CC[C@H]1OC(=O)[C@H](C)[C@@H](O[C@H]2C[C@@](C)(OC)[C@@H](O)[C@H](C)O2)[C@H](C)[C@@H](O[C@@H]2O[C@H](C)C[C@H](N(C3CCC3)C3CCC3)[C@H]2O)[C@](C)(OC)C[C@@H](C)C(=O)[C@H](C)[C@H]2N(CCc3ccc(Cl)c(F)c3)C(=O)O[C@]12C [Example 12, 3',3'-N-Bisdesmethyl-3',3'-N-biscyclobutyl-11-deoxy-11-[carboxy-(4-chloro-3-fluorophenethylamino)]-O-methl-erythromycin A 11,12-(cyclic carbamate)] | 1
CC[C@H]1OC(=O)[C@H](C)[C@@H](O[C@H]2C[C@@](C)(OC)[C@@H](O)[C@H](C)O2)[C@H](C)[C@@H](O[C@@H]2O[C@H](C)C[C@H](N(CC)C(C)C)[C@H]2O)[C@](C)(OC)C[C@@H](C)C(=O)[C@H](C)[C@H]2N(CCc3ccc(Cl)cc3)C(=O)O[C@]12C [Example 8, 3',3'-N-Bisdesmethyl-3'-N-ethyl-3'-N-isopropyl-11-deoxy-11-[carboxy-(4-chlorophenethylamino)]-6-O-methyl-erythromycin A 11,12-(cyclic carbamate)] | 2.51
CCCN(C(C)C)[C@H]1C[C@@H](C)O[C@@H](O[C@@H]2[C@@H](C)[C@H](O[C@H]3C[C@@](C)(OC)[C@@H](O)[C@H](C)O3)[C@@H](C)C(=O)O[C@H](CC)[C@@]3(C)OC(=O)N(CCc4ccc(Cl)cc4)[C@@H]3[C@@H](C)C(=O)[C@H](C)C[C@@]2(C)OC)[C@@H]1O [Example 6, 3',3'-N-Bisdesmethyl-3'-N-isopropyl-3'-N-propyl-11-deoxy-11-[carboxy-(4-chlorophenethylamino)]-6-O-methyl-erythromycin A 11,12-(cyclic carbamate)] | 8.32
CC[C@H]1OC(=O)[C@H](C)[C@@H](O[C@H]2C[C@@](C)(OC)[C@@H](O)[C@H](C)O2)[C@H](C)[C@@H](O[C@@H]2O[C@H](C)C[C@H](N(CC3CC3)CC3CC3)[C@H]2O)[C@](C)(OC)C[C@@H](C)C(=O)[C@H](C)[C@H]2N(CCc3ccc(Cl)cc3)C(=O)O[C@]12C [Example 3, 3',3'-N-Bisdesmethyl-3',3'-N-biscyclolpropylmethyl-11-deoxy-11-[carboxy-(4-chlorophenetlylamino)]-6-methyl-eryromycin A 11,12-(cyclic carbamate)] | 4.17
